Data on 13 compounds can be found in ChEMBL document CHEMBL4699616, “Novel deoxyvasicinone and tetrahydro-beta-carboline hybrids as inhibitors of acetylcholinesterase and amyloid beta aggregation” (Bioorg Med Chem Lett, 2020).

For series [1], the target named is T1, Acetylcholinesterase (Homo sapiens, UniProt P22303). The series can be described thus: Inhibition of human erythrocytes AChE by Ellman's method. Type of series: cell-based, Erythrocyte. Background: DTNB colorimetry detects thiols as they appear.
T1 sequence (P22303 whole entry): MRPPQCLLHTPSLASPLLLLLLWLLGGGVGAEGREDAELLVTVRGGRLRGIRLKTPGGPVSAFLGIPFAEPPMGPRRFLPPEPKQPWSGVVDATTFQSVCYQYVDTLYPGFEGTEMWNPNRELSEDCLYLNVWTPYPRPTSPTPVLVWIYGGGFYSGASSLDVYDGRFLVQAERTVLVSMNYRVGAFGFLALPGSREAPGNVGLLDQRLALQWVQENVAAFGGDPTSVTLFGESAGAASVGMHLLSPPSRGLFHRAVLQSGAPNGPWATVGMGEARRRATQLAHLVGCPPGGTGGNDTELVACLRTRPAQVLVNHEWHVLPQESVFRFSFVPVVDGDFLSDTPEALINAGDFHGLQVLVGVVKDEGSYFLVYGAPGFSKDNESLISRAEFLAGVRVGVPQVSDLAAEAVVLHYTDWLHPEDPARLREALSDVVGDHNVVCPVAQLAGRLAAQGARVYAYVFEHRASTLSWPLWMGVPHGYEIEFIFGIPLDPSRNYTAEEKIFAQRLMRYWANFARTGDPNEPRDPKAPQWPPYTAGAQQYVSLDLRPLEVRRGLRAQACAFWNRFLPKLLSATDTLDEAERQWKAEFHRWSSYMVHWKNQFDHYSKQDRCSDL
In series [2] the target is T2, Cholinesterase (Homo sapiens, UniProt P06276).
T2 sequence (P06276 whole entry): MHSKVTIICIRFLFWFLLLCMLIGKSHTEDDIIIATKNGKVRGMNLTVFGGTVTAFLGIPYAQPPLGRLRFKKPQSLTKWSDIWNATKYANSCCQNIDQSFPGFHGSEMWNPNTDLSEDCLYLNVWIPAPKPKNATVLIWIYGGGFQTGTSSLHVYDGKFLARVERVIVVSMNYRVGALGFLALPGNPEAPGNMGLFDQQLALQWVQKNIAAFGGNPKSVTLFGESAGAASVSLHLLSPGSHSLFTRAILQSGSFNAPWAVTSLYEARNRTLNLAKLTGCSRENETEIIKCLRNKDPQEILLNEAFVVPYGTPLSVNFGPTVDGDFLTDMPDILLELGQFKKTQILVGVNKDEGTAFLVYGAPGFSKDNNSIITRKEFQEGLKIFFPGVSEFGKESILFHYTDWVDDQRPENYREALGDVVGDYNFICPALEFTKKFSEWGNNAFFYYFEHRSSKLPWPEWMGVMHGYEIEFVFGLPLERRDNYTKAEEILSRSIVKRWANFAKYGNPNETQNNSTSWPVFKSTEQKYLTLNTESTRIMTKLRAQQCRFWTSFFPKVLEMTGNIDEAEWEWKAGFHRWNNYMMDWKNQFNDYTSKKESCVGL
Description: Inhibition of human serum BuChe by Ellman's method
Series [3] has as its target T3, Amyloid-beta precursor protein (Homo sapiens, UniProt P05067). The series can be described thus: Inhibition of amyloid beta (1 to 42) (unknown origin) self aggregation at 20 uM incubated for 48 hrs by thioflavin-T fluorescence method relative to control.
For series [4], the target named is T2, Cholinesterase. The series can be described thus: Inhibition of human serum BuChe at 1 uM by Ellman's method relative to control. Type of series: cell-free.
Series [5] addresses T1, Acetylcholinesterase. The experiment in a line: Inhibition of human erythrocytes AChE at 1 uM by Ellman's method relative to control. Type of series: cell-based. The conditions noted are these: Erythrocyte.
Series [6] has as its system SH-SY5Y. The experiment in a line: Neuroprotective activity against amyloid beta (1 to 42) induced cell damage in human SH-SY5Y cells assessed as increase in cell viability at 1 to 10 uM measured after 48 hrs. Type of series: functional, cell-based. The conditions noted are these: dose microM 1-10, time 48.0 hrs.
Series [7] has as its target T3, Amyloid-beta precursor protein.
Description: Inhibition of amyloid beta (1 to 42) (unknown origin) self aggregation incubated for 48 hrs by thioflavin-T fluorescence method
Series [8] in a line: Cytotoxicity against human SH-SY5Y cells assessed as cell viability at 10 uM after 48 hrs by MTT assay relative to control. Format: cell-based. Particulars: read-out: Activity. On the technique in general: Tetrazolium assays rely on reduction of a dye to a coloured formazan, in cell work by metabolically active cells.
Series [9] addresses T3, Amyloid-beta precursor protein. The experiment in a line: Potency index, ratio of resveratrol IC50 to test compound IC50 for inhibition of amyloid beta (1 to 42) (unknown origin) self aggregation.
The subject of series [10] is SH-SY5Y. The experiment in a line: Neuroprotective activity against amyloid beta (1 to 42) induced cell damage in human SH-SY5Y cells assessed as increase in cell viability at 0.1 uM measured after 48 hrs. Format: functional, cell-based.
Series [11] has as its system SH-SY5Y. The experiment in a line: Cytotoxicity against human SH-SY5Y cells assessed as effect on cell viability at 0.1 to 1 uM after 48 hrs by MTT assay. Type of series: cell-based. Particulars: dose 0.1-1 µM.
Series [12] deals with T1, Acetylcholinesterase. The experiment in a line: Inhibition of human erythrocytes AChE using acetylthiocholine iodide as substrate preincubated for 4.5 mins followed by substrate addition measured after 2.5 mins by Ellman's method. Also noted: species or system Erythrocyte.
Series [13] concerns SH-SY5Y. The experiment in a line: Cytotoxicity against human SH-SY5Y cells assessed as effect on cell viability at 0.1 uM after 48 hrs by MTT assay. Type of series: cell-based.

Broadly, the IC50 is the concentration that inhibits the measured activity by half. A high value points to a need for much substance. In general, inhibition refers to the share of the control response that was lost under treatment. A low value points to a response near the control.

The source made the active and inactive calls. No cut-off for these calls is given here. Some results are limits rather than exact numbers.

T3 sequence (P05067 whole entry): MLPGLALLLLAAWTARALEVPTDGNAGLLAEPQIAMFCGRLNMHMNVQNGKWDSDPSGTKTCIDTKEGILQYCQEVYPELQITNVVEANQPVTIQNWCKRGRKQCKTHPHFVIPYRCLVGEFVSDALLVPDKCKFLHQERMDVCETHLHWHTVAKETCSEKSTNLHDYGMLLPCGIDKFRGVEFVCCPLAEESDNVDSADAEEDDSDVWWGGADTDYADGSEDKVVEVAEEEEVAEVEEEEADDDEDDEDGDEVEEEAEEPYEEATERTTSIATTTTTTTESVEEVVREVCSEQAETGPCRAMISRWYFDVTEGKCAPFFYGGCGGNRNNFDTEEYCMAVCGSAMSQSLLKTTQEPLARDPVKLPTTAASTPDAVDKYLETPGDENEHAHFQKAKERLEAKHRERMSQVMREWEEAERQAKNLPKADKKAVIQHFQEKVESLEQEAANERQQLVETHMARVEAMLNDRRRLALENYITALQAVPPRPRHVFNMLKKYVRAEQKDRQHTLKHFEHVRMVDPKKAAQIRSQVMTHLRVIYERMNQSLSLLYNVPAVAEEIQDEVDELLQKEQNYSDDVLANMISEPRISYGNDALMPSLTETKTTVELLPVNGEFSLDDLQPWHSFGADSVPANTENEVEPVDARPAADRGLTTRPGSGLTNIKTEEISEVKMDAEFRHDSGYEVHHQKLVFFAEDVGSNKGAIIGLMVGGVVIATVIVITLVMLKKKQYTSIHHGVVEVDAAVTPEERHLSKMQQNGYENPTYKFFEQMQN

`O=C(CCCN1CCC2c3ccccc3NC2C1)Oc1ccc(/C=C2\CCn3c2nc2ccccc2c3=O)cc1` (stereo not given): the IC50 in series [1] worked out at 16.5 nM; in series [2] it was 44.1 nM. The inhibition in series [3] worked out at 41.5%.
Consider `O=C(O)C1NCCC2c3ccccc3NC12` (stereo not given), for which the inhibition came out at 40.5% in series [4], 20.7% in series [3] and 29.7% in [5].
Consider `O=C(CCCCN1CCC2c3ccccc3NC2C1)Oc1ccc(/C=C2\CCn3c2nc2ccccc2c3=O)cc1` (stereo not given), for which the result in [6] and in series [10] was Active. The IC50 is 2050 nM in series [7], 1.08 nM in series [1] and 422 nM in series [2]. For the same compound, in [8], the viability at 48 h, 10 µM was above 76%. In addition, the Ratio IC50 in [9] came to 6. In addition, the Activity entry in series [11] is on record as “Non-Toxic”.
Take `O=C(CCN1CCC2c3ccccc3NC2C1)Nc1ccc(/C=C2\CCn3c2nc2ccccc2c3=O)cc1` (stereo not given): the results for the half-inhibitory concentration (IC50) in series [1] and in series [2] were 9.75 nM and 726 nM, respectively. For the same compound, the inhibition in series [3] was 31.6%.
Take `O=c1c2cc(OCCCN3CCCCC3)ccc2nc2n1CCC2`: the midpoint of inhibition in series [12], the IC50, lay at 50 nM.
Turning to `O=C(CCCN1CCC2c3ccccc3NC2C1)Nc1ccc(/C=C2\CCn3c2nc2ccccc2c3=O)cc1` (stereo not given), the IC50 in series [2] amounted to 215 nM. The inhibition in [3] was 21.2%; in series [5], 49.9%.
`O=C(CN1CCC2c3ccccc3NC2C1)Oc1ccc(/C=C2\CCn3c2nc2ccccc2c3=O)cc1` (stereo not given): the results for the IC50 in series [1] and in series [2] were 216 nM and 238 nM, respectively. In [3], the inhibition was 38.8%.
In turn, `O=C(CN1CCC2c3ccccc3NC2C1)Nc1ccc(/C=C2\CCn3c2nc2ccccc2c3=O)cc1` (stereo not given) gave a half-maximal inhibitory concentration (IC50) in series [2] of 596 nM. The inhibition was 37.5% in series [3] and 21.6% in [5].
`O=C(CCN1CCC2c3ccccc3NC2C1)Oc1ccc(/C=C2\CCn3c2nc2ccccc2c3=O)cc1` (stereo not given): the outcome in series [6] was Active. The 50% inhibitory concentration (IC50) in series [7] was determined as 19700 nM; in series [1] it was 0.93 nM; in series [2], 69.2 nM. The viability at 48 h, 10 µM in series [8] is above 76%. Further, the Activity result in series [13] is on record as “Non-Toxic”.
Take `O=C(CCCCCN1CCC2c3ccccc3NC2C1)Nc1ccc(/C=C2\CCn3c2nc2ccccc2c3=O)cc1` (stereo not given): the IC50 in series [7] was found to be 18300 nM; in [1] it was 153 nM; in series [2], 486 nM.
Take `O=C(CCCCN1CCC2c3ccccc3NC2C1)Nc1ccc(/C=C2\CCn3c2nc2ccccc2c3=O)cc1` (stereo not given): the IC50 was found to be 98.3 nM in series [1] and 32.8 nM in series [2]. The compound also showed an inhibition in series [3] of 27.9%.
On to `O=C(CCCCCN1CCC2c3ccccc3NC2C1)Oc1ccc(/C=C2\CCn3c2nc2ccccc2c3=O)cc1` (stereo not given), for which the 50% inhibitory concentration (IC50) in series [7] was 15100 nM; in [1], 10.7 nM; in [2], 507 nM.
With `O=c1c2ccccc2nc2n1CCC2`, the inhibition in series [4] is 40.5%; in series [3] it was 20.7%; in series [5], 29.7%.
